From patent publication US8633243B2, “Forms of CDDO methyl ester” (priority 2007, dated 2014)
In brackets after ≈: the same amount, converted by molar mass. Where two headings read alike, the source gives them in different places.

What was measured:
[1] = test system: NCI-60 tumor cell line panel; format: cell-based; details: average over panel
[2] = Approximate solubility, solvent addition method; format: physicochemical; details: thermodynamic from solid, room temperature
Experimental: A weighed sample was treated with aliquots of the test solvent at room temperature. Complete dissolution of the test material was determined by visual inspection. Solubility was estimated based on the total solvent used to provide complete dissolution. The actual solubility may be greater than the value calculated because of the use of solvent aliquots that were too large or due to a slow rate of dissolution. […] If complete dissolution was achieved as a result of only one aliquot addition, the solubility is expressed as “greater than.” Approximate solubilities were determined in various solvents at room temperature, with the results as provided in Table 2.

[3] = test system: advanced (metastatic) cancer; test: Phase I dose-escalation trial, safety and anti-tumor activity; format: in vivo, human
Excerpt: Both the safety and anti-tumor activity of CDDO-Me were reviewed. In addition, the biological effects of CDDO-Me were characterized. […] Several patients (approximately 75% of evaluable patients) were considered to have stable disease (based on standard radiological and clinical criteria) at the first evaluation point following completion of the second treatment cycle. […] Five patients, including patients with melanoma and renal cell cancer, continued to show stable disease, some with evidence of regression of individual tumor lesions, after four cycles of treatment. Four patients were considered to have stable disease after at least six cycles of treatment.

[4] = test system: MMP-9, TNFα, IL-8, and VEGF; test: Phase I trial, circulating inflammatory cytokines; format: in vivo, human
Experimental: Based on the known anti-inflammatory properties of CDDO-Me, circulating inflammatory cytokines were evaluated in patients in the Phase I trial. At doses as low as 5 mg/day, there was a reduction of several circulating pro-inflammatory cytokines and chemokines including MMP-9, TNFα, IL-8, and VEGF.

[5] = test system: NQO1 (NAD(P)H:quinone oxidoreductase); test: Phase I trial, phase 2 gene products in peripheral blood mononuclear cells; format: in vivo, human; details: doses of 10 mg/day and above
Excerpt: Additionally, phase 2 gene products, which include antioxidant and detoxification enzymes, have been monitored in peripheral blood mononuclear cells of patients in the Phase I study.

[6] = test system: MCF-7/Her-2 Breast Cancer Xenograft; details: i.v.; doses at or below the MTD; Konopleva et al. 2006; cited from earlier work
[7] = test system: 4T1 Syngeneic Breast Cancer; details: i.v., cited from earlier work
[8] = test system: NCI-H460 Lung Cancer Xenograft; test: NCI-H460 Lung Cancer Xenograft; details: p.o.
[9] = Phase I trial, serum creatinine; details: day 21
[10] = test system: DU-145 Prostate Cancer Xenograft; test: DU-145 Prostate Cancer Xenograft; details: p.o.
[11] = test system: COX-2, iNOS, phosphorylated STAT3 (pSTAT3); test: Phase I trial, tumor biopsy data
[12] = test system: L3.6PL Pancreatic Cancer Xenograft; test: L3.6PL Pancreatic Cancer Xenograft; details: i.v.

## COC(=O)[C@]12CCC(C)(C)C[C@H]1[C@H]1C(=O)C=C3[C@@]4(C)C=C(C#N)C(=O)C(C)(C)[C@@H]4CC[C@@]3(C)[C@]1(C)CC2 [CDDO methyl ester, methyl 2-cyano-3,12-dioxoleana-1,9(11)-dien-28-oate]
[1]
  IC50: ~0.035 µM
[2]; isopropanol/water (10:1), organic solvent or mixture, (10:1) Isopropanol/water
  solubility: 4 mg/mL (≈ 7.91 mM)
[2]; organic solvent or mixture, 1,4-Dioxane
  solubility: 21 mg/mL (≈ 41.5 mM)
[2]; organic solvent or mixture, ACN (acetonitrile)
  solubility: 66 mg/mL (≈ 131 mM)
[2]; organic solvent or mixture, Acetone
  solubility: 70 mg/mL (≈ 138 mM)
[2]; organic solvent or mixture, DCM (dichloromethane)
  solubility: > 194 mg/mL
[2]; organic solvent or mixture, EtOAc (ethyl acetate)
  solubility: 36 mg/mL (≈ 71.2 mM)
[2]; organic solvent or mixture, EtOH (ethanol)
  solubility: 4 mg/mL (≈ 7.91 mM)
[2]; organic solvent or mixture, Hexanes
  solubility: < 1 mg/mL
[2]; organic solvent or mixture, MTBE (tert-butyl methyl ether)
  solubility: 4 mg/mL (≈ 7.91 mM)
[2]; organic solvent or mixture, MeOH (methanol)
  solubility: 8 mg/mL (≈ 15.8 mM)
[2]; organic solvent or mixture, THF (tetrahydrofuran)
  solubility: 97 mg/mL (≈ 192 mM)
[2]; organic solvent or mixture, Toluene
  solubility: 38 mg/mL (≈ 75.1 mM)
[2]; Water
  solubility: < 0.1 mg/mL
[3]; 5 to 900 mg/day, 21 days on / 7 days rest
  drug-related adverse events: no significant drug-related adverse events reported
[3]; after at least six cycles of treatment
  patients considered to have stable disease: Four
[3]; after four cycles of treatment
  patients continuing to show stable disease: Five
[3]; capsules of micronized Form A, 5 to 900 mg/day, 21 days on / 7 days rest, 21 adult patients
  tolerability: very well tolerated
[3]; first evaluation point after the second treatment cycle
  evaluable patients with stable disease: approximately 75%
[3]; patients receiving at least 40 mg per day
  new metastases: No new metastases developed
[4]; 3 patients with elevated baseline TNF levels, 10, 20 and 40 mg per day
  circulating TNFα: reduced substantially or to below detectable limits
[4]; doses as low as 5 mg/day
  circulating pro-inflammatory cytokines and chemokines including MMP-9, TNFα, IL-8, and VEGF: reduction
[5]
  NQO1 in peripheral blood mononuclear cells: Significant induction
[6]
  DRUG ACTIVITY, regression: 15% regression
[7]; Delayed Treatment
  DRUG ACTIVITY, suppression: 67% suppression
[7]; Delayed Treatment, sacrifice on Day 95
  animals tumor-free at sacrifice: 33% of animals tumor-free at
[7]; Early Treatment, Ling et al. 2007
  DRUG ACTIVITY, suppression: 100% suppression
[7]; Early Treatment, sacrifice on Day 85
  animals tumor-free at sacrifice: All animals remained tumor-free
[8]
  comparison with radiation: Me as effective as radiation
[8]; doses at or below the MTD
  DRUG ACTIVITY, TGI (Tumor Growth Inhibition): 78% TGI^1
[9]
  patients with serum creatinine significantly lower than pre-treatment baseline: more than 80%
[10]; doses at or below the MTD
  DRUG ACTIVITY, TGI (Tumor Growth Inhibition): 77% TGI
[10]; multiple schedules
  TGI, multiple schedules tested: 60-77%
[11]; biopsies of several patients after two cycles
  tumor tissue levels of COX-2, iNOS and pSTAT3: pronounced reductions
[11]; several patients, after two cycles
  tumor cell death in biopsy: pronounced degree of tumor cell death
[12]
  comparison with Gemcitabine: CDDO-Me outperformed
[12]; doses at or below the MTD
  DRUG ACTIVITY, TGI (Tumor Growth Inhibition): 51% TGI
